The text below walks through data of paper PMC8286840, “Identifying SARS-CoV-2 antiviral compounds by screening for small molecule inhibitors of Nsp3 papain-like protease” (Biochemical Journal, 2021).

SMILES strings stand for the structures. Counter-ions that a name gives are not always drawn. Like-named read-outs stand apart in the source and are kept apart here.

Assay [1] deals with T1, SARS-CoV-2 PLpro (nsp3 1564–1878) (Severe acute respiratory syndrome coronavirus 2, UniProt P0DTD1). The assay is described as follows: biochemical. Details: FRET-quenched peptide (Pro3) cleavage by PLpro, 10 min pre-incubation, slope over 20 min, normalised to no-compound control. Conditions: high concentration screen, read-out: % of control remaining.
Assay [2] concerns the target T1, SARS-CoV-2 PLpro (nsp3 1564–1878). In words: biochemical. On the set-up: FRET-quenched peptide (Pro3) cleavage by PLpro, 10 min pre-incubation, slope over 20 min, normalised to no-compound control. Conditions: low concentration screen, read-out: % of control remaining.

As for `CNC(=O)[C@H]1O[C@@H](n2cnc3c(NCc4cccc(I)c4)nc(Cl)nc32)[C@H](O)[C@@H]1O` [Chloro-IB-MECA], in assay [1] (Well no.=395), the remaining activity at 3.75 µM was found to be 95.2%. Moreover, in assay [2] (Well no.=395), the remaining activity at 1.25 µM worked out at 95.2%.
Consider `O=C(/C=C/c1ccc(O)c(O)c1)O[C@@H]1C[C@](O)(C(=O)O)C[C@@H](O)[C@H]1O` [Chlorogenic acid], for which the remaining activity at 3.75 µM in assay [1] (Well no.=3510) was determined as 103%. Moreover, in assay [2] (Well no.=3510), the remaining activity at 1.25 µM amounted to 103%.
As to `NS(=O)(=O)c1cc2c(cc1Cl)N=CNS2(=O)=O` [Chlorothiazide], the remaining activity at 3.75 µM turned out to be 100% in assay [1] (Well no.=82) and 102% in assay [1] (Well no.=7460). Moreover, the remaining activity at 1.25 µM in assay [2] (Well no.=82) was found to be 99.4%; in assay [2] (Well no.=7460) it was 96%.
Take `Oc1c(Cl)cc(Cl)c2cccnc12` [Chloroxine]: the remaining activity at 3.75 µM in assay [1] (Well no.=5266) was 97.2%. Moreover, in assay [2] (Well no.=5266), the remaining activity at 1.25 µM was 91.9%.
As to `CN(C)CCC(c1ccc(Cl)cc1)c1ccccn1` (centres unmarked) [Chlorpheniramine (maleate)], the remaining activity at 3.75 µM in assay [1] (Well no.=7525) turned out to be 101%. The remaining activity at 1.25 µM in assay [2] (Well no.=7525) is 103%.
Take `CN(C)CCC(c1ccc(Cl)cc1)c1ccccn1` (centres unmarked) [Chlorpheniramine]: the remaining activity at 3.75 µM in assay [1] (Well no.=2229) worked out at 95.1%. In assay [2] (Well no.=2229), the remaining activity at 1.25 µM is 93.7%.
In the case of `CN(C)CCOC(C)(c1ccccc1)c1ccc(Cl)cc1` (centres unmarked) [Chlorphenoxamine], the remaining activity at 3.75 µM in assay [1] (Well no.=6219) came to 100%. The remaining activity at 1.25 µM in assay [2] (Well no.=6219) was 102%.
Consider `CN(C)CCCN1c2ccccc2Sc2ccc(Cl)cc21` [Chlorpromazine (hydrochloride)], for which, in assay [1] (Well no.=6227), the remaining activity at 3.75 µM is 96.3%. Also, the remaining activity at 1.25 µM in assay [2] (Well no.=6227) amounted to 95.8%.
As to `CN(C)CCCN1c2ccccc2Sc2ccc(Cl)cc21` [Chlorpromazine hydrochloride], the remaining activity at 3.75 µM in assay [1] (Well no.=44) came to 96.9%. The remaining activity at 1.25 µM in assay [2] (Well no.=44) came out at 98.8%.
For the compound `CN(C)CCCN1c2ccccc2Sc2ccc(Cl)cc21` [Chlorpromazine.HCl], the remaining activity at 3.75 µM in assay [1] (Well no.=1596) turned out to be 103%. For the same compound, in assay [2] (Well no.=1596), the remaining activity at 1.25 µM is 104%.
Take `CCCNC(=O)NS(=O)(=O)c1ccc(Cl)cc1` [Chlorpropamide]: the remaining activity at 3.75 µM in assay [1] (Well no.=331) was 97.8%. Moreover, the remaining activity at 1.25 µM in assay [2] (Well no.=331) came to 96.9%.
With `CN(C)CC/C=C1/c2ccccc2Sc2ccc(Cl)cc21` [Chlorprothixene hydrochloride], in assay [1] (Well no.=45), the remaining activity at 3.75 µM turned out to be 90.5%. Moreover, the remaining activity at 1.25 µM in assay [2] (Well no.=45) is 89.3%.
Consider `CN(C)CC/C=C1/c2ccccc2Sc2ccc(Cl)cc21` [Chlorprothixene], for which the remaining activity at 3.75 µM in assay [1] (Well no.=5345) was found to be 93.5%; in assay [1] (Well no.=6221) it was 99.3%. The figures for the remaining activity at 1.25 µM in assay [2] (Well no.=5345) and in assay [2] (Well no.=6221) were 97.4% and 104%, respectively.
As to `C[C@H](CCC(=O)O)[C@H]1CC[C@H]2[C@@H]3[C@H](O)C[C@@H]4C[C@H](O)CC[C@]4(C)[C@H]3C[C@H](O)[C@]12C` [Cholic acid], the remaining activity at 3.75 µM in assay [1] (Well no.=6201) was 105%; in assay [1] (Well no.=8202) it was 94.8%. Moreover, the remaining activity at 1.25 µM came to 105% in assay [2] (Well no.=6201) and 96.6% in assay [2] (Well no.=8202).
Regarding `C[N+](C)(C)CCO` [Choline bromide], in assay [1] (Well no.=93), the remaining activity at 3.75 µM came out at 97%. For the same compound, in assay [2] (Well no.=93), the remaining activity at 1.25 µM was 93.4%.
Turning to `CO[C@@H]1[C@H](O)C[C@@H](O[C@@H]2C[C@H](Oc3cc4cc5c(c(O)c4c(O)c3C)C(=O)[C@@H](O[C@H]3C[C@@H](O[C@H]4C[C@@H](O[C@H]6C[C@](C)(O)[C@@H](OC(C)=O)[C@H](C)O6)[C@H](O)[C@@H](C)O4)[C@H](O)[C@@H](C)O3)[C@H]([C@H](OC)C(=O)[C@@H](O)[C@@H](C)O)C5)O[C@H](C)[C@@H]2OC(C)=O)O[C@@H]1C` [Chromomycin A3], the remaining activity at 3.75 µM in assay [1] (Well no.=3579) came to 107%. The remaining activity at 1.25 µM in assay [2] (Well no.=3579) was determined as 103%.
Consider `O=c1cc(-c2ccccc2)oc2cc(O)cc(O)c12` [Chrysine], for which, in assay [1] (Well no.=3276), the remaining activity at 3.75 µM was determined as 100%. In assay [2] (Well no.=3276), the remaining activity at 1.25 µM amounted to 101%.
With `CC(C)C(=O)OCC(=O)[C@@]12O[C@H](C3CCCCC3)O[C@@H]1C[C@H]1[C@@H]3CCC4=CC(=O)C=C[C@]4(C)[C@H]3[C@@H](O)C[C@@]12C` [Ciclesonide], the remaining activity at 3.75 µM in assay [1] (Well no.=7323) turned out to be 97.2%. Moreover, the remaining activity at 1.25 µM in assay [2] (Well no.=7323) was 95.9%.
For `Nc1ccn(C[C@@H](CO)OCP(=O)(O)O)c(=O)n1` [Cidofovir (Vistide)], in assay [1] (Well no.=5251), the remaining activity at 3.75 µM worked out at 101%. For the same compound, the remaining activity at 1.25 µM in assay [2] (Well no.=5251) amounted to 98.3%.
For `CC1(COc2ccc(CC3SC(=O)NC3=O)cc2)CCCCC1` (centres unmarked) [Ciglitazone], the remaining activity at 3.75 µM in assay [1] (Well no.=4236) amounted to 107%. For the same compound, the remaining activity at 1.25 µM in assay [2] (Well no.=4236) was 110%.
In the case of `CC1(COc2ccc(CC3SC(=O)NC3=O)cc2)CCCCC1` (centres unmarked) [Ciglitizone], in assay [1] (Well no.=222), the remaining activity at 3.75 µM turned out to be 97.7%. In assay [2] (Well no.=222), the remaining activity at 1.25 µM is 99%.
Take `CC1(C)C[C@@H]1C(=O)N/C(=C\CCCCSC[C@H](N)C(=O)O)C(=O)O` [Cilastatin]: the remaining activity at 3.75 µM in assay [1] (Well no.=2198) is 95.6%. The remaining activity at 1.25 µM in assay [2] (Well no.=2198) is 94.3%.
On to `CC(C)[C@H]1C(=O)N[C@@H](CCCNC(=N)N)C(=O)NCC(=O)N[C@@H](CC(=O)O)C(=O)N[C@H](Cc2ccccc2)C(=O)N1C` [Cilengitide (EMD 121974, NSC 707544)], for which, in assay [1] (Well no.=5174), the remaining activity at 3.75 µM is 96.2%. Moreover, in assay [2] (Well no.=5174), the remaining activity at 1.25 µM came to 94.8%.
Turning to `COCCOC(=O)C1=C(C)NC(C)=C(C(=O)OC/C=C/c2ccccc2)C1c1cccc([N+](=O)[O-])c1` (centres unmarked) [Cilnidipine], the remaining activity at 3.75 µM in assay [1] (Well no.=1759) is 98.3%. Besides, the remaining activity at 1.25 µM in assay [2] (Well no.=1759) was 98.8%.
In the case of `CN(C(=O)CCCOc1ccc2[nH]c(=O)ccc2c1)C1CCCCC1` [Cilostamide], the values for the remaining activity at 3.75 µM in assay [1] (Well no.=234) and in assay [1] (Well no.=2142) were 94.4% and 98.8%, respectively. Also, the values for the remaining activity at 1.25 µM in assay [2] (Well no.=234) and in assay [2] (Well no.=2142) were 91.5% and 95.9%, respectively.
Regarding `O=C1CCc2cc(OCCCCc3nnnn3C3CCCCC3)ccc2N1` [Cilostazol], the remaining activity at 3.75 µM in assay [1] (Well no.=281) worked out at 95.3%. Further, the remaining activity at 1.25 µM in assay [2] (Well no.=281) was 94.5%.
Take `CC(C)NCC(O)c1ccc(N)c(C#N)c1` (centres unmarked) [Cimaterol]: in assay [1] (Well no.=1779), the remaining activity at 3.75 µM worked out at 99.7%. Moreover, the remaining activity at 1.25 µM in assay [2] (Well no.=1779) was 102%.
As for `CN/C(=N\CCSCc1nc[nH]c1C)NC#N` [Cimetidine], the remaining activity at 3.75 µM is 93.4% in assay [1] (Well no.=272), 99.3% in assay [1] (Well no.=1875) and 97.6% in assay [1] (Well no.=7328). Moreover, the remaining activity at 1.25 µM in assay [2] (Well no.=272) was 88%; in assay [2] (Well no.=1875), 96.3%; in assay [2] (Well no.=7328), 94.5%.
